Experimental data reported in patent publication US12441710B2, “Substituted piperidino compounds and related methods of treatment” (Alkermes, Inc., priority 2020, dated 2025).

Tests used:
Assay type in all cases: in vitro ADME
MDR1 = test: MDCK-MDR1 permeability assay; settings: dog, 3 μM test compound; for efflux ratio at 2 h, 3 μM: Papp (B→A) divided by Papp (A→B), read-out: Efflux ratio (ER); for Papp A→B at 2 h, 3 μM: apical to basolateral, 2 hours at 37 degrees C
Experimental: The bidirectional permeability (Apical to Basal and Basal to Apical directions) of test compounds in MDCK-MDR1 cells were evaluated using MDCK-MDR1 cells seeded in Solvo PreadyPort™ MDCK 96-well plate. Once the plate was received from ReadyCell (Barcelona, Spain), it was treated as per PreadyPort™ user's manual.
For the Apical to Basolateral (A→B) permeability, 80 μL of test compound (3 μM) co-dosed with LY (Lucifer Yellow) (100 μM) in HBSS (Hank's Balanced Salt Solution) assay buffer was added to the donor side (A) while 250 μL of HBSS buffer was added to the receiver side (B). For the Basolateral to Apical (B→A) permeability, 255 μL of test compound (3 μM) in HBSS assay buffer was added to the donor side (B) while 75 μL of HBSS buffer containing LY (100 μM) was added to the receiver side (A).
The plate was placed in an incubator set at 37 degrees C. After 10 minutes of pre-warming, 5 μL aliquot was taken from donor compartment and set aside as the dosing solution. The MDCK-MDR1 incubation plate was placed back into the incubator for 2 hours of incubation at 37 degrees C. After 2 hours of incubation, 25 μL and 5 μL aliquots were removed from the receiver and donor sides, respectively. To the 5 μL aliquots taken from the donor sides (before and after a 2-hour incubation) were diluted with 20 μL of the HBSS buffer. All samples were mixed with 150 μL with acetonitrile containing internal standard (IS) and 200 μL water, and analyzed by LC-MS/MS.
The apparent permeability (Papp) was calculated using the following formula: Papp=dQ/dt×1/A×C0 where: • dQ/dt: amount of translocated material over incubation time (nmol/s) • A: area of insert (0.14 cm^2 for PreadyPort™ MDR1-96) • C0: initial concentration of product applied in apical (A→B) or basal (B→A) compartment (nmol/mL).
The efflux ratio (ER) was measured by dividing the Papp (basolateral to apical direction) by Papp (apical to basolateral direction). It is a general measure of the involvement of active processes. An ER >2 is considered positive for active transport.
The data reported in Table 3 were obtained according to the MDCK-MDR1 permeability assay described above.

[1] = Hepatocytes stability assay (human hepatocytes); settings: both sexes, cryopreserved hepatocytes, 1 μM test compound, 1×10^6 cell/mL, read-out: CLint (μL/min/million cells)
Experimental: (§1) In vitro metabolic stability was assessed using cryopreserved hepatocytes from male Sprague Dawley rats and a pool of 50 mixed gender humans (BioIVT, Baltimore, MD). The incubation mixtures were prepared by mixing 250 μL of pre-warmed KHB (Krebs-Henseleit buffer) containing 2×10^6 cell/mL of hepatocytes with 250 μL of pre-warmed KHB buffer containing 2 μM of test compounds in a 48-well plate, giving a final concentration of 1 μM test compound (0.1% DMSO) and 1×10^6 cell/mL of hepatocytes. The reaction mixture was incubated at 37 degrees C. A 50 μL aliquot of incubation mixture was taken at time points (0, 15, 30, 60, 120 and 240 minutes) and transferred into a 96-well plate containing 300 μL ice-cold acetonitrile (containing 30 ng/mL of labetalol and 10 ng/mL of Naltrexone-d3 as internal standards) and immediately placed in ice to terminate the reaction. Samples were centrifuged, and supernatants were transferred into 96-well plates for liquid chromatography with tandem mass spectrometry (LC-MS/MS) analysis to monitor the depletion of the test compound. Data was calculated as percent remaining by assuming zero-minute time point peak area ratio (analyte/IS) as 100% and dividing remaining time point peak area ratios by zero-minute time point peak area ratio. Data were fitted to a first-order decay model to determine half-life. From a plot of log (ln) peak area against time, the slope of the line was determined. Subsequently, half-life (T1/2) and intrinsic clearance (CLint) were calculated using the equations below: • Elimination rate constant (k)=(−slope) • Half-life (T1/2) min=0.693/k • Intrinsic Clearance (CLint) (mL/min/million cells)=(V×0.693)/T1/2 • V=incubation volume mL/number of cells The in vitro T1/2 was converted to in vitro intrinsic clearance (CLint,hep) in units of mL/min/kg using the formula shown below: The in vitro intrinsic clearance (CLint,hep) was scaled to in vivo hepatic clearance (CL,hep) using the following equation which was adapted from a well-stirred model. [formula] where Q is the liver blood flow and fu is the fraction unbound (assumed to be unity in this case). All parameters used in the calculation are shown below (Table 4). The extraction ratio (ER) was calculated by dividing the hepatic clearance of a compound to the liver blood flow. The data reported in Table 5 were obtained according to the human hepatocytes stability assay described above.

human hepatocytes = test: Hepatocytes stability assay (human hepatocytes); settings: hepatic clearance divided by liver blood flow, fu assumed unity
Experimental: as §1

| efflux ratio at 2 h, 3 μM (MDR1) | Papp A→B at 2 h, 3 μM (MDR1) [×10⁻⁶ cm/s] | hepatocyte CLint at 1 μM [1] [µL/min/1e6 cells] | Extraction Ratio (ER) (human hepatocytes) | Compound |
| --- | --- | --- | --- | --- |
| 35 | 0.69 | 101 | 0.94 | CS(=O)(=O)N[C@H]1CCN(c2cnccn2)CC1COC1CCC(c2ccccc2)CC1 (stereo partly shown) [Compound 21] |
| 23 | 1.3 | 56 | 0.89 | CS(=O)(=O)N[C@H]1CCN(c2cccnn2)CC1COC1CCC(c2ccccc2)CC1 (stereo partly shown) [Compound 22] |
| > 5.4 | < 2 | 25 | 0.79 | CS(=O)(=O)N[C@H]1CCN(c2cccc(F)n2)CC1COC1CCC(c2ccccc2)CC1 (stereo partly shown) [Compound 23] |
| 30 | 0.28 | 42 | 0.86 | CS(=O)(=O)N[C@H]1CCN(c2ccc(F)cn2)CC1COC1CCC(c2ccccc2)CC1 (stereo partly shown) [Compound 24] |
| > 58 | < 0.41 | 73 | 0.92 | CS(=O)(=O)N[C@H]1CCN(c2cc(F)ccn2)CC1COC1CCC(c2ccccc2)CC1 (stereo partly shown) [Compound 25] |
| 37 | 0.31 | 55 | 0.89 | CS(=O)(=O)N[C@H]1CCN(c2ncccc2F)CC1COC1CCC(c2ccccc2)CC1 (stereo partly shown) [Compound 26] |
| 3 | 2.7 | 75 | 0.92 | CS(=O)(=O)N[C@H]1CCN(c2ncccc2O)CC1COC1CCC(c2ccccc2)CC1 (stereo partly shown) [Compound 27] |
| > 3.4 | < 1.2 | 154 | 0.96 | CS(=O)(=O)N[C@H]1CCN(c2ncccc2C(F)(F)F)CC1COC1CCC(c2ccccc2)CC1 (stereo partly shown) [Compound 28] |
| > 17 | < 0.42 | 30 | 0.82 | C[C@@]1(COC2CCC(c3ccccc3)CC2)CN(c2ccccn2)CC[C@@H]1NS(C)(=O)=O (stereo partly shown) [Compound 29] |
| 28 | 0.7 | 45 | 0.87 | CS(=O)(=O)N[C@H]1CCN(c2ccccn2)CC1COC1CCC(c2ccccc2O)CC1 (stereo partly shown) [Compound 30] |
| 18 | 1 | 81 | 0.92 | CS(=O)(=O)N[C@H]1CCN(c2ccccn2)CC1COC1CCC(c2cccc(O)c2)CC1 (stereo partly shown) [Compound 31] |
| 34 | 0.41 | 110 | 0.94 | CS(=O)(=O)N[C@H]1CCN(c2ccccn2)CC1COC1CCC(c2ccc(O)cc2)CC1 (stereo partly shown) [Compound 32] |
| 15 | 0.07 | 79 | 0.92 | CS(=O)(=O)N[C@H]1CCN(c2ccccn2)CC1COC1CCC(c2cccc(C(F)(F)F)c2)CC1 (stereo partly shown) [Compound 33] |
| 12 | 1.3 | 102 | 0.94 | CS(=O)(=O)N[C@H]1CCN(c2ccccn2)CC1COC1CCC(c2cccc(C#N)c2)CC1 (stereo partly shown) [Compound 35] |
| > 12 | < 0.21 | 58 | 0.90 | CS(=O)(=O)N[C@H]1CCN(Cc2ccccc2)CC1COC1CCC(c2ccccc2)CC1 (stereo partly shown) [Compound 36] |
| 15 | 1.4 | 59 | 0.90 | CS(=O)(=O)N[C@H]1CCN(Cc2ccccn2)CC1COC1CCC(c2ccccc2)CC1 (stereo partly shown) [Compound 39] |
| 8.2 | 1.3 | 86 | 0.93 | CS(=O)(=O)N[C@H]1CCN(Cc2cccnc2)CC1COC1CCC(c2ccccc2)CC1 (stereo partly shown) [Compound 40] |
| 16 | 1.7 | 107 | 0.94 | CS(=O)(=O)N[C@H]1CCN(Cc2ccncc2)CC1COC1CCC(c2ccccc2)CC1 (stereo partly shown) [Compound 41] |
| 2.9 | 0.86 | 100 | 0.94 | CS(=O)(=O)N[C@H]1CCN(c2cccc3ccnn23)CC1COC1CCC(c2ccccc2)CC1 (stereo partly shown) [Compound 42] |
| 8.8 | 2.4 | 102 | 0.94 | CS(=O)(=O)N[C@H]1CCN(c2cccc3ncnn23)CC1COC1CCC(c2ccccc2)CC1 (stereo partly shown) [Compound 43] |
| 6.4 | 3 | 133 | 0.95 | CS(=O)(=O)N[C@H]1CCN(c2nccc3ncnn23)CC1COC1CCC(c2ccccc2)CC1 (stereo partly shown) [Compound 44] |
| 2.2 | 1.9 | 103 | 0.94 | CS(=O)(=O)N[C@H]1CCN(c2nccc3ocnc23)CC1COC1CCC(c2ccccc2)CC1 (stereo partly shown) [Compound 45] |
